Source: PubChem BioAssay AID256 (DTP/NCI, 2004)
“And” between values parts separate entries of the source, which are not always exact repeats. Identical values can stand only once. Toxic doses and inconclusive results are not listed. Rule for the calls: active = survival T/C of 150% or more; inactive = T/C below 125% in these data.

Test system: CD2F1 mice, L1210 leukemia ip, survival T/C
Assay: NCI In Vivo Anticancer Drug Screen. Data for tumor model L1210 Leukemia (intraperitoneal) in CD2F1 (CDF1) mice
Settings: higher = longer survival
Method in brief: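 Each value reflects a quotient of treated over vehicle control outcomes in mice with a transplanted tumor.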

[1] = endpoint: mean survival time, dose: 100.0 mg/kg/injection, schedule: Q01DX001 (ip), vehicle: saline with Tween-80
[2] = endpoint: mean survival time, dose: 100.0 mg/kg/injection, schedule: Q04DX003 (ip), vehicle: saline with Tween-80
[3] = endpoint: mean survival time, dose: 200.0 mg/kg/injection, schedule: Q01DX001 (ip), vehicle: saline with Tween-80
[4] = endpoint: mean survival time, dose: 200.0 mg/kg/injection, schedule: Q04DX003 (ip), vehicle: saline with Tween-80
[5] = endpoint: mean survival time, dose: 400.0 mg/kg/injection, schedule: Q01DX001 (ip), vehicle: saline with Tween-80
[6] = endpoint: mean survival time, dose: 400.0 mg/kg/injection, schedule: Q04DX003 (ip), vehicle: saline with Tween-80
[7] = endpoint: mean survival time, dose: 100.0 mg/kg/injection, schedule: Q01DX009 (ip), vehicle: Klucel (hydroxypropylcellulose) (HPC)
[8] = endpoint: mean survival time, dose: 200.0 mg/kg/injection, schedule: Q01DX009 (ip), vehicle: Klucel (hydroxypropylcellulose) (HPC)
[9] = endpoint: mean survival time, dose: 400.0 mg/kg/injection, schedule: Q01DX009 (ip), vehicle: Klucel (hydroxypropylcellulose) (HPC)
[10] = endpoint: mean survival time, dose: 25.0 mg/kg/injection, schedule: Q01DX009 (ip), vehicle: saline with Tween-80
[11] = endpoint: mean survival time, dose: 50.0 mg/kg/injection, schedule: Q01DX009 (ip), vehicle: saline with Tween-80
[12] = endpoint: mean survival time, dose: 50.0 mg/kg/injection, schedule: Q04DX003 (ip), vehicle: saline with Tween-80
[13] = endpoint: mean survival time, dose: 100.0 mg/kg/injection, schedule: Q04DX002 (ip), vehicle: saline with Tween-80
[14] = endpoint: mean survival time, dose: 200.0 mg/kg/injection, schedule: Q04DX002 (ip), vehicle: saline with Tween-80
[15] = endpoint: mean survival time, dose: 400.0 mg/kg/injection, schedule: Q04DX002 (ip), vehicle: saline with Tween-80
[16] = endpoint: mean survival time, dose: 100.0 mg/kg/injection, schedule: Q04DX003 (ip), vehicle: saline
[17] = endpoint: mean survival time, dose: 200.0 mg/kg/injection, schedule: Q04DX003 (ip), vehicle: saline
[18] = endpoint: mean survival time, dose: 400.0 mg/kg/injection, schedule: Q04DX003 (ip), vehicle: saline
[19] = endpoint: mean survival time, dose: 100.0 mg/kg/injection, schedule: Q01DX009 (ip), vehicle: saline with Tween-80
[20] = endpoint: mean survival time, dose: 200.0 mg/kg/injection, schedule: Q01DX009 (ip), vehicle: saline with Tween-80
[21] = endpoint: mean survival time, dose: 400.0 mg/kg/injection, schedule: Q01DX009 (ip), vehicle: saline with Tween-80

Measured: T/C

Cc1[nH]nc2[nH]cnc(=S)c12
inactive: endpoint: mean survival time, dose: 12.5 mg/kg/injection, schedule: Q01DX005 (ip), vehicle: saline with Tween-80 90 % of control | endpoint: mean survival time, dose: 25.0 mg/kg/injection, schedule: Q01DX005 (ip), vehicle: saline with Tween-80 88 % of control | endpoint: mean survival time, dose: 50.0 mg/kg/injection, schedule: Q01DX005 (ip), vehicle: saline with Tween-80 87 % of control | endpoint: mean survival time, dose: 100.0 mg/kg/injection, schedule: Q01DX005 (ip), vehicle: saline with Tween-80 94 % of control | endpoint: mean survival time, dose: 200.0 mg/kg/injection, schedule: Q01DX005 (ip), vehicle: saline with Tween-80 96 % of control

COC(=O)CCC(NC(=O)c1cccc(N(C)C=O)c1)C(=O)OC (centres undefined)
inactive: [1] 104 % of control | [2] 100 % of control | [3] 115 % of control | [4] 100 % of control | [5] 104 % of control | [6] 96 % of control

C/C=C(\C)C1(CCC)C(=O)NC(=S)NC1=O
inactive: endpoint: mean survival time, dose: 75.0 mg/kg/injection, schedule: Q01DX001 (ip), vehicle: other 106 % of control | endpoint: mean survival time, dose: 150.0 mg/kg/injection, schedule: Q01DX001 (ip), vehicle: other 116 % of control

COC(=O)/C(=N\NS(=O)(=O)c1ccc(C)cc1)c1ccccc1
inactive: endpoint: mean survival time, dose: 25.0 mg/kg/injection, schedule: Q01DX009 (ip), vehicle: Klucel (hydroxypropylcellulose) (HPC) 100 % of control | endpoint: mean survival time, dose: 50.0 mg/kg/injection, schedule: Q01DX009 (ip), vehicle: Klucel (hydroxypropylcellulose) (HPC) 102 % of control | [7] 102 % of control | [8] 91 % of control | [9] 91 % of control

COc1ccc2c(c1)C/C(=N\O)C2=O
inactive: [10] 93 % of control | endpoint: mean survival time, dose: 25.0 mg/kg/injection, schedule: Q04DX003 (ip), vehicle: saline with Tween-80 95 % of control | [11] 97 % of control | [12] 93 % of control | [2] 91 % of control

Cc1cccc(OP(N)(=O)Oc2cccc(C)c2)c1
inactive: [13] 96 % of control | [14] 96 % of control | [15] 96 % of control

CC(C)=CC(C)=Nc1ccccc1
inactive: endpoint: mean survival time, dose: 100.0 mg/kg/injection, schedule: Q01DX001 (ip), vehicle: saline 90 % of control | [16] 102 % of control | endpoint: mean survival time, dose: 200.0 mg/kg/injection, schedule: Q01DX001 (ip), vehicle: saline 96 % of control | [17] 96 % of control | endpoint: mean survival time, dose: 400.0 mg/kg/injection, schedule: Q01DX001 (ip), vehicle: saline 98 % of control | [18] 104 % of control

CC(=O)Nc1ccc([N+](=O)[O-])cc1
inactive: [19] 96 % of control | [2] 90 % of control | [20] 101 % of control | [4] 98 % of control | [21] 111 % of control | [6] 98 % of control

CN=C(NC)N/N=C(/c1ccc(Br)cc1)c1ccc(C(F)(F)F)cc1
inactive: endpoint: mean survival time, dose: 12.5 mg/kg/injection, schedule: Q04DX002 (ip), vehicle: saline with Tween-80 90 % of control | endpoint: mean survival time, dose: 25.0 mg/kg/injection, schedule: Q04DX002 (ip), vehicle: saline with Tween-80 90 % of control | [12] 98 % of control | endpoint: mean survival time, dose: 100.0 mg/kg/injection, schedule: Q01DX001 (ip), vehicle: saline sonified 97 % of control | endpoint: mean survival time, dose: 200.0 mg/kg/injection, schedule: Q01DX001 (ip), vehicle: saline sonified 93 % of control

NC(=O)C1(Cl)CC2C=CC1C2 (centres undefined)
inactive: [16] 94 % of control

Cc1ccc(S(=O)(=O)Nc2ccc(I)cc2)cc1
inactive: [11] 94 % of control | [19] 97 % of control | [2] 92 % of control | [20] 95 % of control | [4] 94 % of control | [6] 86 % of control

COc1ccc(/C=C/c2ccc3ccccc3[n+]2C)c(OC)c1OC
inactive: endpoint: mean survival time, dose: 5.0 mg/kg/injection, schedule: Q01DX009 (ip), vehicle: saline 98 % of control | endpoint: mean survival time, dose: 10.0 mg/kg/injection, schedule: Q01DX009 (ip), vehicle: saline 86 % of control

CC(C)(C)OC(=O)C(CC(=O)O)=C(c1ccccc1)c1ccccc1
inactive: [7] 102 % of control | endpoint: mean survival time, dose: 100.0 mg/kg/injection, schedule: Q04DX003 (ip), vehicle: Klucel (hydroxypropylcellulose) (HPC) 101 % of control | [8] 100 % of control | endpoint: mean survival time, dose: 200.0 mg/kg/injection, schedule: Q04DX003 (ip), vehicle: Klucel (hydroxypropylcellulose) (HPC) 103 % of control | [9] 104 % of control | endpoint: mean survival time, dose: 400.0 mg/kg/injection, schedule: Q04DX003 (ip), vehicle: Klucel (hydroxypropylcellulose) (HPC) 109 % of control

CCCCCCCC(=O)Nc1ccc(C)c(C)c1
inactive: [19] 89 % of control | [20] 91 % of control | [21] 96 % of control

COc1ccc(NC(=O)Nc2ccc(OC)cc2OC)cc1
inactive: [13] 86 % of control | [14] 90 % of control | [15] 86 % of control

N=C(N)c1ccc(OCCOc2ccc(N)cc2)cc1
inactive: [1] 103 % of control | [3] 103 % of control

CCCCCOC(CN)C(Cl)(Cl)Cl (centres undefined)
inactive: endpoint: mean survival time, dose: 12.5 mg/kg/injection, schedule: Q01DX009 (ip), vehicle: saline with Tween-80 101 % of control | [10] 96 % of control | [11] 95 % of control | [19] 98 % of control

Nc1cccc2c1C(=O)c1cccc(Cl)c1C2=O
inactive: [19] 95 % of control | [20] 106 % of control | [21] 109 % of control

O=C1/C(=C\c2ccccc2)C2CCC(C2)/C1=C\c1ccccc1
inactive: [1] 91 % of control | [3] 88 % of control | [5] 97 % of control

CSc1cc(N)nc2c1nnn2C1OC(CO)C(O)C1O (centres undefined)
inactive: endpoint: mean survival time, dose: 12.5 mg/kg/injection, schedule: Q01DX005 (ip), vehicle: water 94 % of control | endpoint: mean survival time, dose: 25.0 mg/kg/injection, schedule: Q01DX005 (ip), vehicle: water 100 % of control | endpoint: mean survival time, dose: 50.0 mg/kg/injection, schedule: Q01DX005 (ip), vehicle: water 95 % of control | endpoint: mean survival time, dose: 100.0 mg/kg/injection, schedule: Q01DX005 (ip), vehicle: water 90 % of control | endpoint: mean survival time, dose: 200.0 mg/kg/injection, schedule: Q01DX005 (ip), vehicle: water 87 % of control

CC(=O)CC(C)=O.CC(=O)CC(C)=O.CC(=O)CC(C)=O.CC(=O)CC(C)=O.[Hf]
inactive: [2] 86 % of control | [4] 94 % of control

C=C1COC(O)(C2OCOC(C3CC(=O)NC(=O)C3)C2O)C1C (centres undefined)
inactive: endpoint: median survival time, dose: 4.0 micrograms/kg/injection, schedule: Q01DX009 (ip), vehicle: water 103 % of control | endpoint: median survival time, dose: 8.0 micrograms/kg/injection, schedule: Q01DX009 (ip), vehicle: saline 110 % of control | endpoint: median survival time, dose: 8.0 micrograms/kg/injection, schedule: Q01DX009 (ip), vehicle: water 118 % of control and 102 % of control | endpoint: median survival time, dose: 16.0 micrograms/kg/injection, schedule: Q01DX009 (ip), vehicle: saline 116 % of control | endpoint: median survival time, dose: 16.0 micrograms/kg/injection, schedule: Q01DX009 (ip), vehicle: water 116 % of control | endpoint: median survival time, dose: 32.0 micrograms/kg/injection, schedule: Q01DX009 (ip), vehicle: saline 118 % of control

CC1CC(C)(C)N=C(CC(=O)N2Cc3cc4ccccc4nc3C2)O1 (centres undefined)
inactive: [1] 96 % of control | [3] 104 % of control | [5] 96 % of control

Clc1ccc(N=Cc2ccccc2Cl)cc1
inactive: [2] 107 % of control | [4] 113 % of control | [6] 100 % of control

COc1ccc(S(=O)(=O)F)cc1NC(=O)COc1cccc(Cl)c1
inactive: [2] 96 % of control | [4] 97 % of control | [6] 103 % of control

COC(=O)C(C)=O
inactive: [16] 97 % of control | [17] 100 % of control | [18] 102 % of control

CC1c2ccccc2CC2(C)CN12 (centres undefined)
inactive: endpoint: mean survival time, dose: 75.0 mg/kg/injection, schedule: Q01DX001 (ip), vehicle: saline 103 % of control | endpoint: mean survival time, dose: 150.0 mg/kg/injection, schedule: Q01DX001 (ip), vehicle: saline 101 % of control | endpoint: mean survival time, dose: 300.0 mg/kg/injection, schedule: Q01DX001 (ip), vehicle: saline 97 % of control
